The nature of data set [1]: Stability of peptides in aqueous solution (HPLC purity on storage). The conditions noted are these: 22°C, 50% relative humidity, HPLC after 0, 3, 7, 11 and 22 days. In kind it is physicochemical. The method, then: Les peptides synthétiques ont été mis en solution aqueuse (1,5 mg de peptide dissout dans 1000 µL d'eau stérile).
Leur pureté a été testée par HPLC, elle était d'au moins 97,0%.
Ces solutions ont ensuite été diluées : à 0,4 mL de chacune de ces solutions, on a ajouté 1,1 mL d'eau purifiée.
Ces solutions ont été placées en étuve à 22°C et 50% d'humidité relative, et analysées après : 0, 3, 7, 11 et 22 jours.
L'analyse a été faite par HPLC en gradient de phase inverse à une concentration de 0,4 mg/mL, avec les paramètres suivants : - cartouche Symétrie RP18 (Waters) 125 x 4,6 mm - phases mobiles A : H2O + TFA 0.1 % (w/v) B : Acétonitrile + TFA 0.1 % (v/v) - détection : 210 nm - débit : 1 ml/min - volume d'injection : 20 µl de solution (soit 8 µg de peptide) - gradient : […]
Les échantillons ont été placés en étuve à 22 °C, 50 % d'humidité relative et analysés à : 0 jours, 3 jours, 7 jours, 11 jours et 22 jours.
Les résultats sont présentés dans le Tableau 1 et sur la Figuré 1.
Le paramètre « TR » exprime le temps de rétention du peptide en minutes dans la colonne de HPLC.
Le paramètre « Pureté » exprimé la pureté du peptide en % tel que déterminé par HPLC.
La colonne « Impuretés : TR est % » indique pour le pic supplémentaire le plus intense, le temps de rétention en minutes et le pourcentage en masse. La colonne SEQ indique le numéro de la séquence (SEQ ID N° X).

The subject of data set [2] is cellules de la lignée B104. In words: Morphological differentiation and neurite outgrowth of B104 cells. The class given is cell-based, rat. From the text: L'activité biologique des différents peptides a été analysée par ajout de chacun des peptides dans des cultures de cellules nerveuses et suivi des modifications morphologiques de ces cellules.
Des cellules de la lignée B104, issues de neuroblastome de rat, sont cultivées à raison de 1000 cellules par puits dans des plaques de 48 puits préalablement recouverts de poly-lysine (fourni par Sigma-Aldrich), dans du milieu de Eagle modifié par Dubelco (DMEM), supplémenté de glutamine et d'antibiotique, et additionné de 10% de sérum de veau foetal pendant la phase d'adhésion. Le milieu est ensuite remplacé par un nouveau milieu DMEM ne contenant pas de sérum et permettant la différenciation des cellules. Après traitement, c'est-à-dire après ajout du composé à tester, les cellules sont maintenues en culture à 37°C sous une atmosphère à 10% de CO2. L'évolution de la morphologie cellulaire et la prolifération sont suivies par examen microscopique en contraste de phase chaque jour sur la période de culture. La différenciation cellulaire, et en particulier l'effet sur la pousse neuritique, est alors mesurée.

Data set [3] has as its system souris avec lésion ischémique partielle. In words: Mouse partial ischemic spinal cord lesion, functional evaluation of walking. The conditions noted are these: partial ischemic lesion causing paralysis. The class given is in vivo. From the text:
Une première caractérisation in vivo des phénomènes de repousse neuritique et de survie neuronale a été effectuée sur deux modèles d'animaux différents dans le cas du trauma de la moelle épinière (réparation de la moelle épinière après rupture).

A further data set concerns cellules B104. The conditions noted are these: cited from earlier work.
For the next data set, the system named is cellules nerveuses. The note with it: added daily to the culture medium at its optimal dose; cited from earlier work.

The values that follow come from patent EP2118137B1, “PEPTIDES AND POLYPEPTIDES WITH IMPROVED STABILITY USEFUL IN THE REGENERATION OF THE NERVOUS SYSTEM” (Neuronax, priority 2006, dated 2011).

Entries after “also recorded” stand apart in the source; their conditions may differ. Square brackets hold non-standard residues; d marks the D form. Peptide text beside a SMILES is read from it. 2Nal = N[C@@H](Cc1ccc2ccccc2c1)C(=O)O; Lys(iPr) = CC(C)NCCCC[C@H](N)C(=O)O; Abu = CC[C@H](N)C(=O)O

As for `N=C(N)NCCC[C@H](NC(=O)[C@H](CO)NC(=O)[C@H](CS)NC(=O)[C@H](CO)NC(=O)[C@H](CO)NC(=O)[C@H](Cc1c[nH]c2ccccc12)NC(=O)CNC(=O)[C@H](CO)NC(=O)[C@@H](N)Cc1ccc2ccccc2c1)C(=O)N[C@@H](CO)C(=O)O` [SEQ ID N°8, L-Nal2-S-G-W-S-S-C-S-R-S] (H-[2Nal]SGWSSCSRS-OH), the “stabilité en solution aqueuse” value in data set [1] is given as “stabilité en solution améliorée”.

For the compound `CC[C@H](NC(=O)[C@H](CO)NC(=O)[C@H](CO)NC(=O)[C@H](Cc1c[nH]c2ccccc12)NC(=O)CNC(=O)[C@H](CO)NC(=O)[C@@H](N)Cc1c[nH]c2ccccc12)C(=O)N[C@@H](CO)C(=O)N[C@@H](CCCNC(=N)N)C(=O)N[C@@H](CO)C(=O)O` [SEQ ID N°4, W-S-G-W-S-S-Abu-S-R-S] (H-WSGWSS[Abu]SRS-OH), the “stabilité en solution aqueuse” value in data set [1] is on record as “stabilité en solution améliorée”.

Regarding `CC[C@H](NC(=O)[C@H](CCCNC(=N)N)NC(=O)[C@H](CO)NC(=O)[C@H](CS)NC(=O)[C@H](CO)NC(=O)[C@H](CO)NC(=O)[C@H](Cc1c[nH]c2ccccc12)NC(=O)CNC(=O)[C@H](CO)NC(=O)[C@@H](N)Cc1c[nH]c2ccccc12)C(=O)O` [SEQ ID N°5, W-S-G-W-S-S-C-S-R-Abu] (H-WSGWSSCSR[Abu]-OH), the “stabilité en solution aqueuse” value in data set [1] is on record as “stabilité en solution améliorée”.

As to `CC(C)NCCCC[C@H](NC(=O)[C@H](CO)NC(=O)[C@H](CS)NC(=O)[C@H](CO)NC(=O)[C@H](CO)NC(=O)[C@H](Cc1c[nH]c2ccccc12)NC(=O)CNC(=O)[C@H](CO)NC(=O)[C@@H](N)Cc1c[nH]c2ccccc12)C(=O)N[C@@H](CO)C(=O)O` [SEQ ID N°6, W-S-G-W-S-S-C-S-K-(iPr)-S] (H-WSGWSSCS[Lys(iPr)]S-OH), in data set [1], the “stabilité en solution aqueuse” value is “stabilité en solution améliorée”.

Turning to `CC[C@H](NC(=O)[C@@H](N)Cc1c[nH]c2ccccc12)C(=O)NCC(=O)N[C@@H](Cc1c[nH]c2ccccc12)C(=O)N[C@@H](CO)C(=O)N[C@@H](CO)C(=O)N[C@@H](CS)C(=O)N[C@@H](CO)C(=O)N[C@@H](CCCNC(=N)N)C(=O)N[C@@H](CO)C(=O)O` [SEQ ID N°7, W-Abu-G-W-S-S-C-S-R-S] (H-W[Abu]GWSSCSRS-OH), in data set [1], the “stabilité en solution aqueuse” value is recorded as “stabilité en solution améliorée”.

On to “W-S-G-W-S-S-C-S-R-S-C-G (WSGWSSCSRSCG) [SEQ ID N°1, séquence la plus représentative d'un motif TSR de la SCO-spondine]”, for which the “stabilité en solution aqueuse” value in data set [1] is recorded as “se dégrade plus vite; also recorded: diminue en solution aqueuse avec le temps”. The “réponse des cellules B 104 (effet dose-réponse)” value in data set [2] is “proportionnelle à la concentration de peptide”. In data set [2] (24 hours after adding the peptides), the “étalement du corps cellulaire” value is given as “cet effet est présent”. Further, the “incidence du remplacement de l'extrémité carboxyterminale par une extrémité aminée sur l'effet du peptide” value in data set [2] (B104 cells) is “aucune incidence”. In addition, in data set [2] (after 3 days of culture), the “nombre de neurites par cellule” value is “effet inducteur de la pousse neuritique” and the pousses neuritiques entry was “pousses neuritiques importantes”. The “activité régénératrice (évaluation fonctionnelle au niveau de la marche)” value in data set [3] is “activité régénératrice”. Besides, in the data set with cellules B104 (after three days of culture, without serum), the pousses neuritiques entry was “pousses neuritiques importantes”. In addition, in the data set with cellules B104, the différenciation cellulaire entry is on record as “induit la pousse neuritique et l'agrégation cellulaire”, the nombre de neurites result is on record as “induit une augmentation” and the “taille du neurite le plus long” value is reported as “induit une augmentation”. Also, the “regroupements cellulaires (agrégation)” value with cellules B104 (from 3 or 4 days of culture) is recorded as “apparition de regroupements de ces cellules B 104 différenciées”. In addition, in the data set with cellules B104 (increasing range of peptide concentrations), the “effet sur la pousse neuritique (dose)” value is on record as “dépendant de la dose de peptide utilisée”. Also, in the data set on cellules nerveuses, the “effet du peptide avec ajout quotidien” value is listed as “l'effet observé était accentué”.

For `CC[C@H](NC(=O)[C@H](CO)NC(=O)[C@H](CO)NC(=O)[C@H](Cc1c[nH]c2ccccc12)NC(=O)CNC(=O)[C@H](CO)NC(=O)[C@@H](N)Cc1c[nH]c2ccccc12)C(=O)N[C@@H](CO)C(=O)N[C@@H](CCCNC(=N)N)C(=O)N[C@@H](CO)C(N)=O` [NH2-W-S-G-W-S-S-Abu-S-R-S-NH2] (H-WSGWSS[Abu]SRS-NH2), the “induction de la pousse neuritique” value in data set [2] (B104 cells) is listed as “s'est montré actif”.
